≈ marks a conversion by molar mass, not a printed value.
What was measured:
Botrytis cinerea [1] = experiment: Antifungal activity against Botryotinia fuckeliana; assay type: functional, organism-based
Botrytis cinerea [2] = experiment: Antifungal activity against Botryotinia fuckeliana assessed as accumulation of squalene using [2-14C]acetate at 3 x 10^-5 M; assay type: functional
Botrytis cinerea [3] = experiment: Antifungal activity against Botryotinia fuckeliana assessed as accumulation of squalene using [2-14C]acetate at 1 x 10^-5 M; assay type: functional
[4] = system: Trichophyton mentagrophytes; experiment: Antifungal activity against Trichophyton mentagrophytes; assay type: functional
Pyricularia oryzae = experiment: Antifungal activity against Magnaporthe oryzae; assay type: functional, organism-based
[5] = system: Trichophyton mentagrophytes; experiment: Antifungal activity against Trichophyton mentagrophytes assessed as accumulation of squalene using [2-14C]acetate at 1 x 10^-7 M; assay type: functional
[6] = target: T1, Squalene epoxidase ERG1 (Saccharomyces cerevisiae S288c) (UniProt P32476); experiment: Inhibition of squalene epoxidase in Saccharomyces cerevisiae IFO 1346 assessed as incorporation of [2-14C]mevalonate into 4alpha-methyl sterols at 1 x 10^-5 M after 3 hr; parameters: scale not given: the % may be the effect or the level left
T1 sequence (whole entry): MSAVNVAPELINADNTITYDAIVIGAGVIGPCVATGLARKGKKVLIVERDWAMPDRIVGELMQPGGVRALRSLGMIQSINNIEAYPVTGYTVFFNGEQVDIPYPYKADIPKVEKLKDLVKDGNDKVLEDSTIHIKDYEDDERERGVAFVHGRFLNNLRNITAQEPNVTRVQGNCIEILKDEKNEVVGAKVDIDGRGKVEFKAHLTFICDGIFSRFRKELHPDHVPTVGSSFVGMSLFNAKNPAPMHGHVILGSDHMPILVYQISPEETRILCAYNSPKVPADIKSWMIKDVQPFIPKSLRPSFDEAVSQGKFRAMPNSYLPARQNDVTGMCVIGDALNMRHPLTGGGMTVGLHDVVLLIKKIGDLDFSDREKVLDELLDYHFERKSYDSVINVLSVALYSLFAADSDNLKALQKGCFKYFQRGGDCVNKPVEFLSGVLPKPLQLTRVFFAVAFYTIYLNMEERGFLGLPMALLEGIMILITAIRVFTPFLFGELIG

[7] = system: Trichophyton mentagrophytes; experiment: Antifungal activity against Trichophyton mentagrophytes assessed as accumulation of squalene using [2-14C]acetate at 1 x 10^-8 M; assay type: functional
[8] = target: T1, Squalene epoxidase ERG1 (Saccharomyces cerevisiae S288c); experiment: Inhibition of squalene epoxidase in Saccharomyces cerevisiae IFO 1346 assessed as incorporation of [2-14C]mevalonate into squalene at 1 x 10^-5 M after 3 hr; parameters: scale not given: the % may be the effect or the level left
[9] = target: T1, Squalene epoxidase ERG1 (Saccharomyces cerevisiae S288c); experiment: Inhibition of squalene epoxidase in Saccharomyces cerevisiae IFO 1346 assessed as incorporation of [2-14C]mevalonate into 4-desmethyl sterols at 1 x 10^-5 M after 3 hr; parameters: scale not given: the % may be the effect or the level left
[10] = target: T1, Squalene epoxidase ERG1 (Saccharomyces cerevisiae S288c); experiment: Inhibition of squalene epoxidase in Saccharomyces cerevisiae IFO 1346 assessed as incorporation of [2-14C]mevalonate into 2,3-oxidosqualene at 1 x 10^-5 M after 3 hr; parameters: scale not given: the % may be the effect or the level left
[11] = target: T1, Squalene epoxidase ERG1 (Saccharomyces cerevisiae S288c); experiment: Inhibition of squalene epoxidase in Saccharomyces cerevisiae IFO 1346 assessed as incorporation of [2-14C]mevalonate into 4,4-dimethyl sterols at 1 x 10^-5 M after 3 hr; parameters: scale not given: the % may be the effect or the level left
[12] = system: Trichophyton mentagrophytes; experiment: Antifungal activity against Trichophyton mentagrophytes assessed as accumulation of squalene using [2-14C]acetate at 1 x 10^-9 M; assay type: functional
Botrytis cinerea [13] = experiment: Antifungal activity against Botryotinia fuckeliana assessed as accumulation of squalene using [2-14C]acetate at 1 x 10^-7 M; assay type: functional
Botrytis cinerea [14] = experiment: Antifungal activity against Botryotinia fuckeliana assessed as accumulation of squalene using [2-14C]acetate at 1 x 10^-6 M; assay type: functional

SMILES	EC50 (Botrytis cinerea [1]) [µg/mL]	MIC [4] [µg/mL]	EC50 (Pyricularia oryzae) [µg/mL]	also measured
Clc1ccc(Nc2nc(-c3ccccc3Cl)cs2)cc1	> 100	0.3 (≈ 0.934 µM)	0.3 (≈ 0.934 µM)	Activity (Botrytis cinerea [2]): 46.3%; Activity (Botrytis cinerea [3]): 28.8%
CC(C)c1ccc(Nc2nc(-c3c(Cl)cccc3Cl)cs2)cc1	> 100	0.3 (≈ 0.826 µM)	2 (≈ 5.5 µM)	
Cc1cccc(N(C)C(=S)Oc2ccc3ccccc3c2)c1 [TOLNAFTATE]				Activity [5]: 81.5%; Activity [6]: 1.2%; Activity [7]: 72.1%; Activity [8]: 49%; Activity [9]: 43.6%; Activity [10]: 3.5%; Activity (Botrytis cinerea [3]): 79%; Activity [11]: 1.9%; Activity [12]: 74.2%; Activity (Botrytis cinerea [13]): 10%; Activity (Botrytis cinerea [14]): 66%
COc1ccc(Br)c(OC)c1-c1csc(Nc2ccc(Cl)cc2)n1	> 100	3 (≈ 7.05 µM)	0.5 (≈ 1.17 µM)	
CN(c1ccc(Cl)cc1)c1nc(-c2c(Cl)cccc2Cl)cs1	> 100	3 (≈ 8.11 µM)	1 (≈ 2.7 µM)	Activity (Botrytis cinerea [2]): 2%
Cc1cccc(C)c1-c1csc(Nc2ccc(Cl)cc2)n1	0.05 (≈ 0.159 µM)	0.1 (≈ 0.318 µM)	10 (≈ 31.8 µM)	
CCCc1ccc(Nc2nc(-c3c(Cl)cccc3Cl)cs2)cc1	> 100	0.1 (≈ 0.275 µM)	30 (≈ 82.6 µM)	
Fc1ccc(Nc2nc(-c3c(Cl)cccc3Cl)cs2)cc1	0.2 (≈ 0.59 µM)	0.1 (≈ 0.295 µM)	3 (≈ 8.84 µM)	
Clc1ccc(Nc2nc(-c3ccccc3)cs2)cc1	> 100	3 (≈ 10.5 µM)	1 (≈ 3.49 µM)	Activity (Botrytis cinerea [2]): 14.3%; Activity (Botrytis cinerea [3]): 2%
CSc1ccc(Nc2nc(-c3c(Cl)cccc3Cl)cs2)cc1	0.3 (≈ 0.817 µM)	0.1 (≈ 0.272 µM)	4 (≈ 10.9 µM)	
CC(C)(C)c1ccc(Nc2nc(-c3c(Cl)cccc3Cl)cs2)cc1	> 100	> 100	1 (≈ 2.65 µM)	
Clc1cccc(Nc2nc(-c3c(Cl)cccc3Cl)cs2)c1	> 100	0.1 (≈ 0.281 µM)	10 (≈ 28.1 µM)	Activity (Botrytis cinerea [3]): 4%
Clc1ccc(Nc2nc(-c3cccc(Cl)c3)cs2)cc1	> 100	3 (≈ 9.34 µM)	0.3 (≈ 0.934 µM)	Activity (Botrytis cinerea [2]): 1.7%
COc1cccc(OC)c1-c1csc(Nc2ccc(Cl)cc2)n1	0.2 (≈ 0.577 µM)	0.03 (≈ 0.0865 µM)	5 (≈ 14.4 µM)	Activity [5]: 84.1%; Activity [7]: 70.6%; Activity (Botrytis cinerea [3]): 79.8%; Activity [12]: 30.5%; Activity (Botrytis cinerea [13]): 2.3%; Activity (Botrytis cinerea [14]): 46.9%
Clc1ccc(Nc2nc(-c3c(Cl)cccc3Cl)ns2)cc1	0.2 (≈ 0.561 µM)	0.1 (≈ 0.28 µM)	0.6 (≈ 1.68 µM)	
CCCOC/C(=N\c1ccc(Cl)cc1C(F)(F)F)n1ccnc1				Activity [6]: 10.3%; Activity [8]: 19.3%; Activity [9]: 12.6%; Activity [10]: 2.9%; Activity [11]: 54%
O=[N+]([O-])c1ccc(Nc2nc(-c3c(Cl)cccc3Cl)cs2)cc1	> 100	30 (≈ 81.9 µM)	> 100	
Clc1cccc(Cl)c1-c1csc(Nc2ccc(Br)cc2)n1	0.05 (≈ 0.125 µM)	0.03 (≈ 0.075 µM)	0.5 (≈ 1.25 µM)	
Clc1ccc(Nc2nc(-c3ccc4ccccc4c3)cs2)cc1	> 100	> 100	> 100	Activity [5]: 38.7%; Activity [12]: >35%
CS(=O)(=O)c1ccc(Nc2nc(-c3c(Cl)cccc3Cl)cs2)cc1	> 100	3 (≈ 7.51 µM)	3 (≈ 7.51 µM)	

From ChEMBL document CHEMBL3046425, “Synthesis of Antifungal 2-Anilino-4-phenylthiazoles and Their Inhibitory Activities on Sterol Biosynthesis” (J Pestic Sci, 2001)
